Laboratory results reported in patent publication US10414811B2, “Protease-resistant lipidated GLP-1 analogs” (MEDIMMUNE LIMITED, priority 2015, dated 2019).
Like-named read-outs stand apart in the source and are kept apart here. Numbered stars: 1 amine (or outer) side, 2 acyl side, 3 side chain; on linkers, the order of the positions; unused ones are H or OH. Square brackets hold non-standard residues; d marks the D form. Side chains are listed from the residue outwards. Peptide text beside a SMILES is read from it. * marks the point of attachment. C18 diacid = O=C(O)CCCCCCCCCCCCCCCCC(=O)*; γGlu = O=C(O)[C@H](CCC(=O)[*:2])N[*:1]; αMeF = C[C@](N)(Cc1ccccc1)C(=O)O; αMeK = C[C@](N)(CCCCN)C(=O)O; αMeS = C[C@](N)(CO)C(=O)O; AEEA = NCCOCCOCC(=O)O; Aib = CC(C)(N)C(=O)O

Legend:
Type in all cases: cell-based
[1] = biological target: T1, human GLP-1 receptor (GLP-1R) (Homo sapiens, UniProt P43220); experiment: cAMP assay, human GLP-1R cells
T1 construct: expressed in transfected cells
In short: (§1)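 Peptide-stimulated cAMP measured by two-step HTRF after a 30 min room-temperature incubation with receptor-expressing cells (hGLP-1R, hGIPR at 1×10^5 cells/ml; hGCGR at 2×10^5 cells/ml). Duplicate dilutions; EC50 from 4-parameter logistic fit of % Delta F.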

[2] = biological target: T2, human glucagon receptor (GCGR) (Homo sapiens, UniProt P47871); experiment: cAMP assay, human GCGR cells; settings: cAMP assay
T2 construct: expressed in transfected cells
In short: as §1

[3] = biological target: T3, human glucose-dependent insulinotropic peptide receptor (GIPR) (Homo sapiens, UniProt P48546); experiment: cAMP assay, human GIPR cells; settings: cAMP assay
T3 construct: expressed in transfected cells
T3 sequence (P48546 22-466): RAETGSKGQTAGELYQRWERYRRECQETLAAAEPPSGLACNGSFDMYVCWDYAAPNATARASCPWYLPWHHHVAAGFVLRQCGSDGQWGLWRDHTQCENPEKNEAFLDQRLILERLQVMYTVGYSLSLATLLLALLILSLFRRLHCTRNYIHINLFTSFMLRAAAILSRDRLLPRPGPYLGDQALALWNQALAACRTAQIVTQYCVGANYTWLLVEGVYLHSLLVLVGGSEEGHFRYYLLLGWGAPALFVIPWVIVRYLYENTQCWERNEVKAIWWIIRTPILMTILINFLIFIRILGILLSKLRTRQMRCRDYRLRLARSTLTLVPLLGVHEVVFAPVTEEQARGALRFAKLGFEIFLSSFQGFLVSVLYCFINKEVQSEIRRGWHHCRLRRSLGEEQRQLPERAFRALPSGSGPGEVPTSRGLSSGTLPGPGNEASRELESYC
In short: as §1

GLP-1R (INS1e assay) = biological target: T4, GLP-1R (INS1e assay) (Rattus norvegicus, UniProt P32301); experiment: INS1e assay, cAMP activity at GLP-1R; settings: mono-lipidated peptides
T4 construct: endogenous in cells; host or cells: INS-1E cells
T4 sequence (P32301 22-463): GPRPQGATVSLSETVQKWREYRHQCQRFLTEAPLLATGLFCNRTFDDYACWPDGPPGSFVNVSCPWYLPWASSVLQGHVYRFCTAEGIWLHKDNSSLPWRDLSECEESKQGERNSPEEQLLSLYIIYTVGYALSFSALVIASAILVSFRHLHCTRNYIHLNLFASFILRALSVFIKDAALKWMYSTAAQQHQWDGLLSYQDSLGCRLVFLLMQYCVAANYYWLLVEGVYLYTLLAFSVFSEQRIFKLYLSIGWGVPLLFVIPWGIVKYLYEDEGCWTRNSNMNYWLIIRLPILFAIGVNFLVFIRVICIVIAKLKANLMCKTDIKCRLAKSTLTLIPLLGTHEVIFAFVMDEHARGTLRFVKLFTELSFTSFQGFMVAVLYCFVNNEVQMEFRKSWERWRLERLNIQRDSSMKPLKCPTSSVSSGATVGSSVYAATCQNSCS
In short: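 It pairs cAMP-d2 acceptor with anti-cAMP cryptate donor, both prepared 1/20 in conjugate/lysis buffer, applied as a two-step protocol.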

[4] = cAMP assay, first determination (n1), read-out: Primary assay EC50 GLP-1R n1
[5] = cAMP assay, second determination (n2), read-out: Primary assay EC50 GLP-1R n2
[6] = mean of n1 and n2, read-out: Mean pM GLP-1R
[7] = first determination (n1), read-out: Primary assay EC50 Gluc-R (n1)
[8] = first determination (n1), read-out: Primary assay EC50 GIP-R (n1)
[9] = mean of n1 and n2, read-out: INS1e assay EC50 Mean pM GLP-1R
[10] = replicate n1, read-out: INS1e assay EC50 GLP-1R n1
[11] = replicate n2, read-out: INS1e assay EC50 GLP-1R n2
[12] = second determination (n2), read-out: Primary assay EC50 Gluc-R (n2)
[13] = second determination (n2), read-out: Primary assay EC50 GIP-R (n2)

T1 sequence (P43220 24-463): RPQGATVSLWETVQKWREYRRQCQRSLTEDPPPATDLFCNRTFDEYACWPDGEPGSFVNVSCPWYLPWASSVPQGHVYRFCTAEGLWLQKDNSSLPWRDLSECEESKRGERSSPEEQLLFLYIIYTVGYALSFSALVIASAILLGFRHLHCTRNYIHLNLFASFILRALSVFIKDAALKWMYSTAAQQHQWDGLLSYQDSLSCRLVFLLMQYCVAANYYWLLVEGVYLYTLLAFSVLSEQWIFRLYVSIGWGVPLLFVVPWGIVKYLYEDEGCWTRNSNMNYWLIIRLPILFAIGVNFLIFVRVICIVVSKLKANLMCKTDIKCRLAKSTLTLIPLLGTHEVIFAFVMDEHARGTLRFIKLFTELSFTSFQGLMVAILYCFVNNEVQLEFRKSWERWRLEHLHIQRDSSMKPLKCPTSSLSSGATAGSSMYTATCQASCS
T2 sequence (P47871 26-477): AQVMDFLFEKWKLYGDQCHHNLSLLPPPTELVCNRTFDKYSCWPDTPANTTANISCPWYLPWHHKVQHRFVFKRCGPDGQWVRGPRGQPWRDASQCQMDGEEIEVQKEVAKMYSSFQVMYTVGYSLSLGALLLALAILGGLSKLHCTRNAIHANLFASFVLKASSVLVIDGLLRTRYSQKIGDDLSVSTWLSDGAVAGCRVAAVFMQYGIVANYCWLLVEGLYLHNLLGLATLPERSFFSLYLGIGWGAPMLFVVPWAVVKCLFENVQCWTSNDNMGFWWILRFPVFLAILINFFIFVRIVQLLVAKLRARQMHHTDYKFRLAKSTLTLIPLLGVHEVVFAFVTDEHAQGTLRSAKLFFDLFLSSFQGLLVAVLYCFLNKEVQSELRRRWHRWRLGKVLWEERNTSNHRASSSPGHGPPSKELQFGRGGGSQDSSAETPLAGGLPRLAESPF

| Compound | EC50 [1, 4] | EC50 [1, 5] | EC50 [1, 6] | EC50 [2, 7] | EC50 [3, 8] | EC50 (GLP-1R (INS1e assay); [9]) | EC50 (GLP-1R (INS1e assay); [10]) | EC50 (GLP-1R (INS1e assay); [11]) | EC50 [2, 12] | EC50 [3, 13] |
| --- | --- | --- | --- | --- | --- | --- | --- | --- | --- | --- |
| CC[C@H](C)[C@H](NC(=O)[C@](C)(Cc1ccccc1)NC(=O)[C@H](CCC(=O)O)NC(=O)[C@H](CCCCNC(=O)COCCOCCNC(=O)COCCOCCNC(=O)CC[C@H](NC(=O)CCCCCCCCCCCCCCCCC(=O)O)C(=O)O)NC(=O)[C@H](C)NC(=O)[C@H](C)NC(=O)[C@H](CCC(=O)O)NC(=O)CNC(=O)[C@H](CCC(=O)O)NC(=O)[C@H](CC(C)C)NC(=O)[C@](C)(Cc1ccccc1)NC(=O)[C@H](CO)NC(=O)[C@](C)(CO)NC(=O)[C@@H](NC(=O)[C@H](CC(=O)O)NC(=O)[C@H](CO)NC(=O)[C@@H](NC(=O)[C@](C)(Cc1ccccc1)NC(=O)[C@H](CO)NC(=O)CNC(=O)[C@H](CCC(=O)O)NC(=O)C(C)(C)NC(=O)[C@@H](N)Cc1c[nH]cn1)[C@@H](C)O)C(C)C)C(=O)N[C@@H](C)C(=O)N[C@@](C)(Cc1ccccc1)C(=O)N[C@H](C(=O)N[C@H](C(=O)N[C@@H](CCCCN)C(=O)NCC(=O)NCC(N)=O)C(C)C)C(C)C [compound 50] | 170 pM | 260 pM | 216 pM | ≥ 26 nM | ≥ 26 nM | 32400 pM | 22100 pM | 42600 pM |  |  |
| CC[C@H](C)[C@H](NC(=O)[C@H](Cc1ccccc1)NC(=O)[C@H](CCC(=O)O)NC(=O)[C@H](CCCCN)NC(=O)[C@H](C)NC(=O)[C@H](C)NC(=O)[C@H](CCC(=O)O)NC(=O)CNC(=O)[C@H](CCC(=O)O)NC(=O)[C@H](CC(C)C)NC(=O)[C@](C)(Cc1ccccc1)NC(=O)[C@H](CO)NC(=O)[C@](C)(CO)NC(=O)[C@@H](NC(=O)[C@H](CC(=O)O)NC(=O)[C@H](CO)NC(=O)[C@@H](NC(=O)[C@](C)(Cc1ccccc1)NC(=O)[C@H](CO)NC(=O)CNC(=O)[C@H](CCC(=O)O)NC(=O)C(C)(C)NC(=O)[C@@H](N)Cc1c[nH]cn1)[C@@H](C)O)C(C)C)C(=O)N[C@@H](CCCCNC(=O)COCCOCCNC(=O)COCCOCCNC(=O)CC[C@H](NC(=O)CCCCCCCCCCCCCCCCC(=O)O)C(=O)O)C(=O)N[C@@H](Cc1c[nH]c2ccccc12)C(=O)N[C@H](C(=O)N[C@H](C(=O)N[C@@H](CCC(=O)O)C(=O)NCC(=O)NCC(N)=O)C(C)C)C(C)C [compound 65] (H-H[Aib]EGS[αMeF]TSDV[αMeS]S[αMeF]LEGEAAKEFIK([AEEA-AEEA-γGlu-C18 diacid])WVVEGG-NH2) | 19.7 pM | 14 pM | 16.9 pM | ≥ 25.1 nM | ≥ 25.1 nM | 3160 pM | 2570 pM | 3740 pM | ≥ 25.1 nM | ≥ 25.1 nM |
| CC[C@H](C)[C@H](NC(=O)[C@](C)(Cc1ccccc1)NC(=O)[C@H](CCC(=O)O)NC(=O)[C@](C)(CCCCN)NC(=O)[C@H](C)NC(=O)[C@H](CCCCNC(=O)COCCOCCNC(=O)COCCOCCNC(=O)CC[C@H](NC(=O)CCCCCCCCCCCCCCCCC(=O)O)C(=O)O)NC(=O)[C@H](CCC(=O)O)NC(=O)CNC(=O)[C@H](CCC(=O)O)NC(=O)[C@H](CC(C)C)NC(=O)[C@](C)(Cc1ccccc1)NC(=O)[C@H](CO)NC(=O)[C@](C)(CO)NC(=O)[C@@H](NC(=O)[C@H](CC(=O)O)NC(=O)[C@H](CO)NC(=O)[C@@H](NC(=O)[C@](C)(Cc1ccccc1)NC(=O)[C@H](CO)NC(=O)CNC(=O)[C@H](CCC(=O)O)NC(=O)C(C)(C)NC(=O)[C@@H](N)Cc1c[nH]cn1)[C@@H](C)O)C(C)C)C(=O)N[C@@H](C)C(=O)N[C@@](C)(Cc1ccccc1)C(=O)N[C@H](C(=O)N[C@H](C(=O)N[C@@](C)(CCCCN)C(=O)NCC(=O)NCC(N)=O)C(C)C)C(C)C [compound 111] (H-H[Aib]EGS[αMeF]TSDV[αMeS]S[αMeF]LEGEK([AEEA-AEEA-γGlu-C18 diacid])A[αMeK]E[αMeF]IA[αMeF]VV[αMeK]GG-NH2) | 18 pM |  |  | ≥ 25 nM | ≥ 25 nM | 806 pM | 501 pM | 1110 pM | ≥ 25 nM | ≥ 25 nM |
| CC[C@H](C)[C@H](NC(=O)[C@](C)(Cc1ccccc1)NC(=O)[C@H](CCC(=O)O)NC(=O)[C@](C)(CCCCN)NC(=O)[C@H](C)NC(=O)[C@H](C)NC(=O)[C@H](CCC(=O)O)NC(=O)CNC(=O)[C@H](CCC(=O)O)NC(=O)[C@H](CC(C)C)NC(=O)[C@](C)(Cc1ccccc1)NC(=O)[C@H](CO)NC(=O)[C@](C)(CO)NC(=O)[C@@H](NC(=O)[C@H](CC(=O)O)NC(=O)[C@H](CO)NC(=O)[C@@H](NC(=O)[C@](C)(Cc1ccccc1)NC(=O)[C@H](CO)NC(=O)CNC(=O)[C@H](CCC(=O)O)NC(=O)C(C)(C)NC(=O)[C@@H](N)Cc1c[nH]cn1)[C@@H](C)O)C(C)C)C(=O)N[C@@H](C)C(=O)N[C@@H](CCCCNC(=O)COCCOCCNC(=O)COCCOCCNC(=O)CC[C@H](NC(=O)CCCCCCCCCCCCCCCCC(=O)O)C(=O)O)C(=O)N[C@H](C(=O)N[C@H](C(=O)N[C@@](C)(CCCCN)C(=O)NCC(=O)NCC(N)=O)C(C)C)C(C)C [compound 104] | 5.9 pM |  |  | ≥ 26 nM | ≥ 26 nM | 331 pM | 391 pM | 270 pM | ≥ 25.6 nM | ≥ 25.6 nM |
| CCCCCCCCCCCC(=O)NCCCCCC(=O)NCCCCCC(=O)NCCCCCC(=O)NCCCC[C@H](NC(=O)[C@@H](NC(=O)[C@@H](NC(=O)[C@](C)(Cc1ccccc1)NC(=O)[C@H](C)NC(=O)[C@@H](NC(=O)[C@](C)(Cc1ccccc1)NC(=O)[C@H](CCC(=O)O)NC(=O)[C@](C)(CCCCN)NC(=O)[C@H](C)NC(=O)[C@H](C)NC(=O)[C@H](CCC(=O)O)NC(=O)CNC(=O)[C@H](CCC(=O)O)NC(=O)[C@H](CC(C)C)NC(=O)[C@](C)(Cc1ccccc1)NC(=O)[C@H](CO)NC(=O)[C@](C)(CO)NC(=O)[C@@H](NC(=O)[C@H](CC(=O)O)NC(=O)[C@H](CO)NC(=O)[C@@H](NC(=O)[C@](C)(Cc1ccccc1)NC(=O)[C@H](CO)NC(=O)CNC(=O)[C@H](CCC(=O)O)NC(=O)C(C)(C)NC(=O)[C@@H](N)Cc1c[nH]cn1)[C@@H](C)O)C(C)C)[C@@H](C)CC)C(C)C)C(C)C)C(=O)NCC(=O)NCC(N)=O [compound 169] | 3.4 pM | 1.7 pM | 2.6 pM | ≥ 27 nM | ≥ 27 nM | 181 pM | 93.1 pM | 269 pM | ≥ 27 nM | ≥ 27 nM |
